Experiments:
[1] = tested on: 2.5% DSS-induced inflammatory bowel disease animal model; assay: Body weight change in DSS-induced inflammatory bowel disease mice; assay type: in vivo, C57BL/6N male mice; conditions: 5-ASA 100 mg/kg oral for 10 days; 2.5% DSS in drinking water 8 days; body weight before DSS = 100%; negative control 84.50±2.78%, normal 104.89±1.09%
Method: (§1) 6-week-old C57BL/6N male mice were purchased and pre-bred for one week, and then they were randomly divided into a total of 4 groups of 8 mice per group, and experiments were conducted as shown in Table 1 below.
Body weight loss is a representative symptom of inflammatory bowel disease (Scientific Reports volume 10, Article number: 3829 (2020)). The body weight of the mouse was measured once a day at the same time (10 am) using an electronic scale. The rate of change in body weight of each group was obtained by summing the body weight of 8 mice per group and then dividing by 8. The average body weight immediately before the start of administration of 2.5% DSS in drinking water was set as 100%, and the average body weight of each group was calculated every day to measure the rate of change in body weight. Significance was verified by performing a Mann-Whitney test for each group between the negative control group to which 2.5% DSS was administered in drinking water and the experimental group.

[2] = tested on: 2.5% DSS-induced inflammatory bowel disease animal model; assay: Spleen weight and length (spleen ratio) in DSS-induced inflammatory bowel disease mice; assay type: in vivo, C57BL/6N male mice; conditions: 5-ASA 100 mg/kg oral, last day of administration
Method: as §1
A representative symptom that can occur in relation to inflammatory bowel disease includes splenitis. As such, when the spleen becomes inflamed, the size of the spleen is increased by its nature (Nutrients 2019, 11(11), 2776), and in fact, it is known that the spleen becomes enlarged in the model of IBD induced after DSS treatment (Biol. Pharm. Bull. 43, 450-457 (2020)). Therefore, in order to evaluate the level of inflammation in the spleen of mice according to the administration of the Isatidis folium extract of the present invention, the mouse of Example 1 was sacrificed on the last day of each administration, and then the weight and length of the spleen of each group compared to those of the negative control group were measured, and the spleen ratio is shown.

For `Nc1ccc(O)c(C(=O)O)c1` [5-ASA, 5-aminosalicylic acid], the “rate of change in body weight” value [1] was 88.62±1.52% and the “decrease of weight and length of the spleen compared to negative control group” value [2] was 60.6%.

— US20230414689A1, “COMPOSITION FOR PREVENTING, IMPROVING OR TREATING INFLAMMATORY BOWEL DISEASE, COMPRISING ISATIDIS FOLIUM EXTRACT” (MTHERA PHARMA CO., LTD, priority 2021, published 2023)
